Experimental data published in patent US8703813B2, “Compound with spiro chiral carbon backbone, preparation method thereof, and pharmaceutical composition containing the same” (SNU R & DB Foundation, priority 2008, dated 2014).

System: C3H/10T1/2 cells
Assay: Adipocyte differentiation inhibitory ability (Oil Red O staining)
Format: cell-based, mouse
Experimental: C3H/10T1/2 cells, which are mouse mesenchymal progenitor cells purchased from ATCC, were diluted in DMEM (Dulbecco's Modified Eagle Medium) medium containing 5.958 g/L HEPES, 3.7 g/L sodium bicarbonate and 10% FBS (fetal bovine serum), and cultured in 24-well culture plates at a density of 4×10^4 cells/well, in the presence of 5% CO2 at 37° C. for 2 days. When the cultured cells were grown to 90˜100% confluency in the culture plates, the cells were cultured in DMEM medium containing 10% FBS, to which 5μ/ml insulin, 1 μM dexamethason, and 5 μM troglitazone were added, in the presence of 5% CO2 at 37° C. for 8 days, to induce differentiation into adipocyte. The medium was exchanged every other day during differentiation. The C3H/10T1/2 cell line, in which differentiation into the adipocyte was induced, was fixed with 3.7% formaldehyde at room temperature for 30 minutes. An oil Red O solution dissolved in isopropanol at a concentration of 0.5% was diluted in distilled water at a ratio of 6:4, filtered through a 0.2 μm filter, and poured to the fixed cell line, which was stained for 1 hour. In order to observe only the cells differentiated into the adiopocyte, the dye solution was removed and the cells were washed with distilled water two times.
116V specimen extracted from sponge was dissolved in DMSO solvent, and allowed to treat C3H/10T1/2 cell lines, which are mouse mesenchymal progenitor cells, at concentrations of 1, 2.5, 5, 10, and 20 μg/ml. […] Then, after specimens of the compound 1 (1163), the compound 2 (1162), the compound 3 (1161), and the compound 4 (1164), which were purely separated from the 116V and 116VI species were obtained, the same experiment was performed. […] Remarkable cytotoxicity was not observed in each of the specimens during differentiation of adipocytes (FIG. 8).

Q: What does the source list for `CC(C)=CCC/C(C)=C/[C@H]1CC(C)=C[C@@]2(C=C(CO)[C@@H]3CC(=O)C(C)=C[C@@H]3O2)O1` [Compound 1]?
A: adipocyte differentiation inhibitory ability at low concentration (C3H/10T1/2, 1 μg/ml): remarkable adipocyte differentiation inhibitory ability; adipocyte differentiation ability (C3H/10T1/2, 10 μg/ml): remarkably decreased
